O=P(c1ccccc1)(c1ccccc1)c1ccccc1
Conditions | solubility (mole fraction)
in benzene, 293.78 K | 0.055
in benzene, 303.04 K | 0.0747
in benzene, 314.12 K | 0.0963
in benzene, 323.34 K | 0.123
in benzene, 333.45 K | 0.152
in ethyl acetate, 294.54 K | 0.023
in ethyl acetate, 299.09 K | 0.0275
in ethyl acetate, 303.3 K | 0.0305
in ethyl acetate, 308.27 K | 0.0348
in ethyl acetate, 313.72 K | 0.0409
in ethyl acetate, 318.32 K | 0.0496
in ethyl acetate, 323.21 K | 0.0555
in ethyl acetate, 328.65 K | 0.0659
in toluene, 294.42 K | 0.0291
in toluene, 298.74 K | 0.0346
in toluene, 303.15 K | 0.0396
in toluene, 308.36 K | 0.0487
in toluene, 313.53 K | 0.0548
in toluene, 317.97 K | 0.0666
in toluene, 323.13 K | 0.0768
in toluene, 328.42 K | 0.0882
in toluene, 333.77 K | 0.0998
